Data: paper PMC10504751, “Chalcone/1,3,4-Oxadiazole/Benzimidazole hybrids as novel anti-proliferative agents inducing apoptosis and inhibiting EGFR & BRAFV^600E” (BMC Chemistry, 2023)
Where “and” joins values, the source holds several entries; their conditions need not be identical. Equal entries are not always repeated.

Tests used:
[1] = MTT cell viability assay in normal cells; assay type: cell-based; conditions: human, MCF-10A normal mammary epithelial cells
Summary of the method: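 MTT read-out (540 nm after DMSO solubilization) of viability in non-tumour MCF-10A breast epithelial cells. Compounds applied at 50 µM in 0.1% DMSO, cells incubated 4 days at 37°C in quadruplicate.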

[2] = system: Caspase-9 in MCF-7 breast cancer cells; experiment: Caspase-9 assay; assay type: cell-based, human; conditions: for Caspase-9 Fold change: MCF-7, vs untreated control; for Caspase-9 Conc: MCF-7 breast cancer cells
[3] = biological target: BRAF^V600E; experiment: biochemical
Chain of BRAF^V600E (P28028 whole entry V585E): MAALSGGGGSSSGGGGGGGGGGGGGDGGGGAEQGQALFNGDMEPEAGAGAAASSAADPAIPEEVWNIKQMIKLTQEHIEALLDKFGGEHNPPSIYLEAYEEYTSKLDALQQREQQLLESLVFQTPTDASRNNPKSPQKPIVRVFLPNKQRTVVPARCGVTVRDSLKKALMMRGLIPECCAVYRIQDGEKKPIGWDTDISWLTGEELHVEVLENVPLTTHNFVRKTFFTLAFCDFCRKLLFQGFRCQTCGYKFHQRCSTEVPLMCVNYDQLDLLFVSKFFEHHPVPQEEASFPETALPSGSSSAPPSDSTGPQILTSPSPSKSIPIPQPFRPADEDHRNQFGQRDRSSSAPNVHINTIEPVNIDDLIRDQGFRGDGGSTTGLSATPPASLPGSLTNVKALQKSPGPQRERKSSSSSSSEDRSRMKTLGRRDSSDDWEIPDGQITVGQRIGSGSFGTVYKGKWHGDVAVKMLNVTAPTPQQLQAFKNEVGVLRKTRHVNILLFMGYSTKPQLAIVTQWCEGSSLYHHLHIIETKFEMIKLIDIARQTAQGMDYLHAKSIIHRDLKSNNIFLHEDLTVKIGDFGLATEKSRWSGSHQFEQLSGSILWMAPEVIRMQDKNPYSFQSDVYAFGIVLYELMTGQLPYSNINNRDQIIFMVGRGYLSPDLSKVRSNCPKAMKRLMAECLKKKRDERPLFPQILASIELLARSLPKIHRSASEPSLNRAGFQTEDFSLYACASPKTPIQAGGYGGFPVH
Method: To further denature the protein, heat (70° C) was applied for 5 min. […] 10 µL of each reaction was loaded into the precast plates and electrophoresis was allowed to proceed. After completion of electrophoresis, the front part of the precast gel plate (holding hot ATP) was cut and afterwards cast-off. The dried gel was developed using a phosphor screen.

[4] = system: HT-29; experiment: Propidium iodide anti-proliferative assay; assay type: cell-based; conditions: Homo sapiens, 48 h incubation, read-out: IC50 ± SEM HT-29
Summary of the method: (§1)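 Cells seeded at 3000-7500 cells/well and grown 24 h at 37 °C, then treated with compounds (10 µM in 0.1% DMSO, triplicate; IC50 runs at varied concentrations) for 48 h. PI added, plates frozen 24 h at -80 °C and thawed, fluorescence read at 530/620 nm; % cytotoxicity versus 0.1% DMSO control.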

[5] = system: A-549; experiment: Propidium iodide anti-proliferative assay; assay type: cell-based; conditions: Homo sapiens, A549; 48 h incubation; read-out: IC50 ± SEM A-549
Summary of the method: as §1

[6] = system: MCF-7; experiment: Propidium iodide anti-proliferative assay; assay type: cell-based; conditions: Homo sapiens, MCF7; 48 h incubation; read-out: IC50 ± SEM MCF-7
Summary of the method: as §1

[7] = system: Panc-1; experiment: Propidium iodide anti-proliferative assay; assay type: cell-based; conditions: Homo sapiens, 48 h incubation, read-out: IC50 ± SEM Panc-1
Summary of the method: as §1

[8] = biological target: T1, EGFR (Homo sapiens, UniProt P00533); experiment: EGFR-TK inhibitory assay; assay type: biochemical; conditions: for IC50: read-out: EGFR Inhibition IC50 ± SEM
T1 construct: EGFR cytoplasmic domain (EGFR-CD, amino acids 645–1186); His6 (N); made in house; host or cells: Sf-9 insect cells (baculovirus; pBlueBacHis2B / pFASTBacHTc)
T1 sequence (P00533 669-1210): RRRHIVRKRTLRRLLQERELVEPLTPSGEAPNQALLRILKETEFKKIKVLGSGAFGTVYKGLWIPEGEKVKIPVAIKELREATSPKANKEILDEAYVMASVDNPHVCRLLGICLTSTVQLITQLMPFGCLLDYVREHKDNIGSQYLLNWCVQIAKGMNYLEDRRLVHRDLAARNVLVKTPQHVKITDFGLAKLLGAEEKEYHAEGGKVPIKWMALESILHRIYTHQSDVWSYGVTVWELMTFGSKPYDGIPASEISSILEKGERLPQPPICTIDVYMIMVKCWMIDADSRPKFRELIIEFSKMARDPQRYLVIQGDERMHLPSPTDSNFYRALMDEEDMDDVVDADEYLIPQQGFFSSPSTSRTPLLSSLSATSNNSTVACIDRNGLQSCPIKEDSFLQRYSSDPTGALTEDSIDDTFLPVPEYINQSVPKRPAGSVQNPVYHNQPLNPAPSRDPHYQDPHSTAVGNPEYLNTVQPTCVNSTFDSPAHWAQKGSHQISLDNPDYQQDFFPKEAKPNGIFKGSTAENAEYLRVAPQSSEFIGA

[9] = system: K-562; experiment: NCI one-dose SRB anti-proliferative screen; assay type: cell-based, human; conditions: for inhibition at 10 µM: Homo sapiens, K562, K-562, Leukemia, NCI one dose, read-out: Cell growth inhibition %
Method: (§2) The twenty-four synthesized compounds were submitted to the National Cancer Institute (NCI), USA. Eighteen hybrids 7a-h, 7k-r, 7u, and 7v were selected by NCI for one-dose assessment of their anti-proliferative activities at 10 µM dose by Sulforhodamine B colorimetric assay. The assessment was performed in 60 cell lines derived from nine tumor subpanels, comprising lung, leukemia, melanoma, colon, renal, CNS, prostate, breast, and ovarian cancer cell lines.
(§3) The methodology of the NCI anti-proliferative screening has been described in details elsewhere (http://www.dtp.nci.nih.gov).

[10] = system: HCT-116; experiment: NCI one-dose SRB anti-proliferative screen; assay type: cell-based, human; conditions: for inhibition at 10 µM: Homo sapiens, HCT-116, Colon cancer, NCI one dose, read-out: Cell growth inhibition %
Method: as §2, §3

[11] = system: MOLT-4; experiment: NCI one-dose SRB anti-proliferative screen; assay type: cell-based, human; conditions: for inhibition at 10 µM: Homo sapiens, MOLT-4, Leukemia, NCI one dose, read-out: Cell growth inhibition %
Method: as §2, §3

[12] = system: T-47D; experiment: NCI one-dose SRB anti-proliferative screen; assay type: cell-based, human; conditions: for inhibition at 10 µM: Homo sapiens, T47D, T-47D, Breast cancer, NCI one dose, read-out: Cell growth inhibition %
Method: as §2, §3

[13] = system: RXF 393; experiment: NCI one-dose SRB anti-proliferative screen; assay type: cell-based, human; conditions: Homo sapiens; RXF 393, Renal cancer; NCI one dose; read-out: Cell growth inhibition %
Method: as §2, §3

| Compound | viability at 96 h, 50 µM [1] [%] | Caspase-9 Fold change [2] | Caspase-9 Conc [2] [ng/mL] | IC50 [3] [nM] | IC50 [4] [nM] | IC50 [5] [nM] | IC50 [6] [nM] | IC50 [7] [nM] | fold less potent than Erlotinib against EGFR [8] | IC50 [8] [nM] | inhibition at 10 µM [9] [%] | Growth Percent ([9]; K-562 (Leukemia), 10 µM one dose) [%] | Growth Percent ([10]; HCT-116 (Colon Cancer), 10 µM one dose) [%] | inhibition at 10 µM [10] [%] | inhibition at 10 µM [11] [%] | Growth Percent ([11]; MOLT-4 (Leukemia), 10 µM one dose) [%] | inhibition at 10 µM [12] [%] | Growth Percent ([12]; T-47D (Breast Cancer), 10 µM one dose) [%] | inhibition at 10 µM [13] [%] |
| --- | --- | --- | --- | --- | --- | --- | --- | --- | --- | --- | --- | --- | --- | --- | --- | --- | --- | --- | --- |
| COc1ccc(-c2nc3cc(-c4nnc(SCC(=O)Nc5ccc(C(=O)/C=C/c6ccccc6)cc5)o4)ccc3[nH]2)cc1 [Compound 7k, 2-{5-[2-(4-Methoxyphenyl)-1 H-benzo[d]imidazol-5-yl]-1,3,4-oxadiazol-2-ylthio}-N-{4-[(E)-3-phenylacryloyl]phenyl}acetamide] | 91 | 17 fold and 17.00 fold | 15.900 | 1700 ± 200 | 1400 ± 200 | 1200 ± 200 | 950 ± 80 | 1300 ± 200 | approximately 7 fold | 550 ± 100 | 44.6 | 55 | 58.69 | 41.3 | 53 | 47 | 58 | 42.05 | 37.9 |
| COc1ccc(-c2nc3cc(-c4nnc(SCC(=O)Nc5ccc(C(=O)/C=C/c6ccc(Cl)cc6)cc5)o4)ccc3[nH]2)cc1 [Compound 7l, 2-{5-[2-(4-Methoxyphenyl)-1 H-benzo[d]imidazol-5-yl]-1,3,4-oxadiazol-2-ylthio}-N-{4-[(E)-3-(4-chlorophenyl)acryloyl]phenyl}acetamide] | 89 | 16 fold and 16.00 fold | 15.100 | 1900 ± 200 | 1650 ± 300 | 1450 ± 300 | 1100 ± 100 | 1500 ± 300 | – | 800 ± 100 | 6.12 | – | – | 0 | 11.7 | – | 7.23 | – | 1.82 |
| COc1ccc(/C=C/C(=O)c2ccc(NC(=O)CSc3nnc(-c4ccc5[nH]c(-c6ccc(OC)cc6)nc5c4)o3)cc2)cc1 [Compound 7m, 2-{5-[2-(4-Methoxyphenyl)-1 H-benzo[d]imidazol-5-yl]-1,3,4-oxadiazol-2-ylthio}-N-{4-[(E)-3-(4-methoxyphenyl)acryloyl]phenyl}acetamide] | 94 | 15.00 fold | 13.900 | 2200 ± 200 | 1850 ± 400 | 1400 ± 500 | 1200 ± 80 | 1500 ± 200 | – | 900 ± 100 | 28.7 | – | – | 0 | 36.9 | – | 31.1 | – | 0 |
